The record followed here is patent US9890117B2, “Benzamide compounds and related methods of use” (Northwestern University, priority 2012, dated 2018).

Counter-ions that a name gives are not always drawn.

The first assay addresses T1, SIRT2 (Homo sapiens, UniProt Q8IXJ6).
T1 construct: recombinant active enzymes SIRT1, SIRT2, and the catalytically active fragment of SIRT3
T1 sequence (Q8IXJ6 1-389): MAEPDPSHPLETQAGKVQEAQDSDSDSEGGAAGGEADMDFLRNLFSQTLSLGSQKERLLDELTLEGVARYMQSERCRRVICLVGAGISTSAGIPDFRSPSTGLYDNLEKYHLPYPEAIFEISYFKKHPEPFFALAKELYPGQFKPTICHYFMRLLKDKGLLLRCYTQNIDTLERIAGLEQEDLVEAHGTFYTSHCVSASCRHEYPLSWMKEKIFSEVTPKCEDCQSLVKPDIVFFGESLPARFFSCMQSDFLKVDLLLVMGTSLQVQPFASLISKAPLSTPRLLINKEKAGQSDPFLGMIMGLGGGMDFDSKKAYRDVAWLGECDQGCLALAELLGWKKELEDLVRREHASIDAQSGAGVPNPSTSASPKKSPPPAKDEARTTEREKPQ
Put plainly: Fluor-de-Lys biochemical sirtuin deacetylation assay, SIRT2. The note with it: 10 μM.
Regarding `CN(c1ccc(Cl)cc1)S(=O)(=O)c1cccc(C(=O)Nc2ccc(CN)cc2)c1` [Compound 203Aa, N-(4-(aminomethyl)phenyl)-3-(N-(4-chlorophenyl)-N-methylsulfamoyl)benzamide], the inhibition at 10 µM came out at 15%.

`CN(c1ccc([S+](C)[O-])cc1)S(=O)(=O)c1cccc(C(=O)Nc2ccc(Cl)cc2F)c1` (stereo not shown) [Compound 203Ad, N-(4-chloro-2-fluorophenyl)-3-(N-methyl-N-(4-(methylsulfinyl)phenyl)sulfamoyl)-benzamide] showed an inhibition at 10 µM of 0%.

The compound `CN(C(=O)c1ccnc(S(=O)(=O)N(C)c2ccc(Cl)cc2)c1)c1ccc(S(C)(=O)=O)cc1` [Compound 203Ao, 2-(N-(4-chlorophenyl)-N-methylsulfamoyl)-N-methyl-N-(4-(methylsulfonyl)phenyl)-isonicotinamide] came in with an inhibition at 10 µM of 0%.

`C[C@@H](N)c1ccc(N(C)S(=O)(=O)c2cccc(C(=O)Nc3ccc(C#N)cc3)c2)cc1` [Compound 203At, (R)-3-(N-(4-(1-aminoethyl)phenyl)-N-methylsulfamoyl)-N-(4-cyanophenyl)-benzamide hydrochloride] came in with an inhibition at 10 µM of 38%.

Regarding `C[C@H](N)c1ccc(N(C)S(=O)(=O)c2cccc(C(=O)Nc3ccc(C#N)cc3)c2)cc1` [Compound 203Au, (S)-3-(N-(4-(1-aminoethyl)phenyl)-N-methylsulfamoyl)-N-(4-cyanophenyl) benzamide hydrochloride], the inhibition at 10 µM amounted to 39%.

In turn, `CN(c1ccc(O)cc1)S(=O)(=O)c1cccc(C(=O)Nc2ccc(C#N)cc2)c1` [Compound 203Ax, N-(4-cyanophenyl)-3-(N-(4-hydroxyphenyl)-N-methylsulfamoyl)benzamide] gave an inhibition at 10 µM of 51%.

With `Cc1cc(Br)ccc1NC(=O)c1cccc(S(=O)(=O)N(C)c2ccc(Br)cc2)c1` [Compound 203e, N-(4-bromo-2-methylphenyl)-3-(N-(4-bromophenyl)-N-methylsulfamoyl)benzamide], the inhibition at 10 µM turned out to be 0%.

Regarding `Nc1cccc(NC(=O)c2cccc(S(=O)(=O)N3CCCCCC3)c2)c1` [Compound 203i, N-(3-aminophenyl)-3-(azepan-1-ylsulfonyl)benzamide], 10 µM produced 43% inhibition.

The compound `CN(C)c1cccc(NC(=O)c2cccc(S(=O)(=O)N3CCCCCC3)c2)c1` [Compound 203j, 3-(azepan-1-ylsulfonyl)-N-(3-(dimethylamino)phenyl)benzamide] returned an inhibition at 10 µM of 61%.

`CN(c1ccc(Br)cc1)S(=O)(=O)c1cccc(C(=O)Nc2ccc(Br)cc2F)c1` [Compound 203r, N-(4-bromo-2-fluorophenyl)-3-(N-(4-bromophenyl)-N-methylsulfamoyl)benzamide]: the inhibition at 10 µM is 30%.

On to `CN(C(=O)c1cccc(S(=O)(=O)N(C)c2ccc(Br)cc2)c1)c1ccc(F)cc1F` [Compound 203t, 3-(N-(4-bromophenyl)-N-methylsulfamoyl)-N-(2,4-difluorophenyl)-N-methyl-benzamide], for which testing at 10 µM gave an inhibition of 17%.

`CS(=O)(=O)c1ccc(CS(=O)(=O)c2cccc(C(=O)Nc3ccc(C#N)cc3)c2)cc1` [Compound 212a, N-(4-cyanophenyl)-3-((4-(methylsulfonyl)benzyl)sulfonyl)benzamide] registered an inhibition at 10 µM of 19%.

On to `C[C@@H](Oc1cccc(C(=O)Nc2ccc(C#N)cc2)c1)c1ccc(C#N)cc1` [Compound 216Ag, (R)—N-(4-cyanophenyl)-3-(1-(4-cyanophenyl)ethoxy)benzamide], for which the inhibition at 10 µM was determined as 92%.

Turning to `CC(Oc1cccc(C(=O)Nc2ccc(C#N)cc2)c1)c1ccc(C2COC2)cc1` (stereo not shown) [Compound 216Ah, N-(4-cyanophenyl)-3-(1-(4-(oxetan-3-yl)phenyl)ethoxy)benzamide], the inhibition at 10 µM worked out at 41%.

`CC(=O)c1ccc(C(C)(C)Oc2cccc(C(=O)Nc3ccc(C#N)cc3)c2)cc1` [Compound 216Ai, 3-((2-(4-acetylphenyl)propan-2-yl)oxy)-N-(4-cyanophenyl)benzamide]: the inhibition at 10 µM amounted to 80%.

The assay is the same for the next values; noted with them: 10 μM; AK-1 derivatives.
On to `C[S+]([O-])c1cccc(NC(=O)c2cccc(S(=O)(=O)N3CCCCCC3)c2)c1` (stereo not shown) [Compound 138, 3-(azepan-1-ylsulfonyl)-N-(3-(methylsulfinyl)phenyl)benzamide], for which the “% of SIRT2 Inhibition at 10 μM” value is 4%.

On to `C[S+]([O-])c1cccc(NC(=O)c2cccc(S(=O)(=O)N3CCCCCC3)c2)c1` (stereo not shown) [Compound 141, 3-(azepan-1-ylsulfonyl)-N-(3-(methylsulfinyl)phenyl)benzamide], for which the “% of SIRT2 Inhibition at 10 μM” value was 1%.

Staying with this assay, now noted: 10 μM; C2-8 derivatives.
Consider `CN(c1ccc(Cl)cc1)S(=O)(=O)c1cccc(C(=O)NCc2ccccn2)c1` [Compound 53, 3-(N-(4-chlorophenyl)-N-methylsulfamoyl)-N-(pyridin-2-ylmethyl)benzamide], for which the “% of SIRT2 Inhibition at 10 μM” value was determined as 0%.

As to `CN(c1ccc(Cl)cc1)S(=O)(=O)c1cccc(C(=O)NCc2ccccn2)c1` [Compound 62, 3-(N-(4-chlorophenyl)-N-methylsulfamoyl)-N-(pyridin-2-ylmethyl)benzamide], the “% of SIRT2 Inhibition at 10 μM” value stood at 3%.

Turning to `CN(c1ccc(Br)cc1)S(=O)(=O)c1cccc(C(=O)Nc2ccc(Cl)nn2)c1` [Compound 85, 3-(N-(4-bromophenyl)-N-methylsulfamoyl)-N-(6-chloropyridazin-3-yl)benzamide], the inhibition at 10 µM is 16%.

Still in this assay, the particulars now being: 10 μM; sulfone, sulfoxide, thioether derivatives of C2-8 scaffold.
`O=C(Nc1ccc(Cl)cc1)c1cccc(S(=O)(=O)Cc2ccc(Cl)cc2)c1` [Compound 171, 3-((4-chlorobenzyl)sulfonyl)-N-(4-chlorophenyl)benzamide]: 10 µM produced 0% inhibition.

Compound `O=C(Nc1ccc(Br)cc1)c1cccc(S(=O)(=O)Cc2ccc(Cl)cc2)c1` [Compound 172, N-(4-bromophenyl)-3-((4-chlorobenzyl)sulfonyl)benzamide] displayed an inhibition at 10 µM of 0%.

`O=C(Nc1ccc(Cl)cn1)c1cccc(S(=O)(=O)Cc2ccc(Cl)cc2)c1` [Compound 173, 3-((4-chlorobenzyl)sulfonyl)-N-(5-chloropyridin-2-yl)benzamide]: 10 µM produced 2% inhibition.

`C[S+]([O-])c1ccc(NC(=O)c2cccc(S(=O)(=O)Cc3ccc(Cl)cc3)c2)cc1` (stereo not shown) [Compound 175, 3-((4-chlorobenzyl)sulfonyl)-N-(4-(methylsulfinyl)phenyl)benzamide] had an inhibition at 10 µM of 31%.

Turning to `N#Cc1ccc(NC(=O)c2cccc(S(=O)(=O)Cc3ccc(Cl)cc3)c2)nc1` [Compound 176, 3-((4-chlorobenzyl)sulfonyl)-N-(5-cyanopyridin-2-yl)benzamide], the inhibition at 10 µM is 36%.

Take `CS(=O)(=O)c1ccc(NC(=O)c2cccc(S(=O)(=O)Cc3ccc(Cl)cc3)c2)cc1` [Compound 177, 3-((4-chlorobenzyl)sulfonyl)-N-(4-(methylsulfonyl)phenyl)benzamide]: the inhibition at 10 µM was determined as 17%.

`CC(=O)c1ccc(NC(=O)c2cccc(S(=O)(=O)Cc3ccc(Cl)cc3)c2)cc1` [Compound 178, N-(4-acetylphenyl)-3-((4-chlorobenzyl)sulfonyl)benzamide]: the inhibition at 10 µM amounted to 23%.

`O=C(Nc1ccc(Cl)nn1)c1cccc(S(=O)(=O)Cc2ccc(Cl)cc2)c1` [Compound 179, 3-((4-chlorobenzyl)sulfonyl)-N-(6-chloropyridazin-3-yl)benzamide]: the inhibition at 10 µM turned out to be 0%.

As for `COc1ccc(CS(=O)(=O)c2cccc(C(=O)Nc3ccc(C#N)cc3)c2)cc1` [Compound 180, N-(4-cyanophenyl)-3-((4-methoxybenzyl)sulfonyl)benzamide], 10 µM produced 50% inhibition.

The compound `N#Cc1ccc(NC(=O)c2cccc(SCc3ccc(Cl)cc3)c2)cc1` [Compound 181, 3-((4-chlorobenzyl)thio)-N-(4-cyanophenyl)benzamide] showed an inhibition at 10 µM of 81%.

Compound `CSc1ccc(CSc2cccc(C(=O)Nc3ccc(C#N)cc3)c2)cc1` [Compound 183, N-(4-cyanophenyl)-3-((4-(methylthio)benzyl)thio)benzamide] showed an inhibition at 10 µM of 83%.

As for `N#Cc1ccc(NC(=O)c2cccc([S+]([O-])Cc3ccc(Cl)cc3)c2)cc1` (stereo not shown) [Compound 186, N-(4-cyanophenyl)-3-((4-chlorobenzyl)sulfinyl)benzamide], the inhibition at 10 µM worked out at 47%.

As to `C[S+]([O-])c1ccc(NC(=O)c2cccc([S+]([O-])Cc3ccc(Cl)cc3)c2)cc1` (stereo not shown) [Compound 187, 3-((4-chlorobenzyl)sulfinyl)-N-(4-(methylsulfinyl)phenyl)benzamide], testing at 10 µM gave an inhibition of 24%.

As for `C[S+]([O-])c1ccc(NC(=O)c2cccc(S(=O)(=O)Cc3ccc(Cl)cc3)c2)cc1` (stereo not shown) [Compound 188, 3-((4-chlorobenzyl)sulfonyl)-N-(4-(methylsulfinyl)phenyl)benzamide], the “% of SIRT2 Inhibition at 10 μM” value turned out to be 18%.

In turn, `COc1ccc(C[S+]([O-])c2cccc(C(=O)Nc3ccc(C#N)cc3)c2)cc1` (stereo not shown) [Compound 189, N-(4-cyanophenyl)-3-((4-methoxybenzyl)sulfinyl)benzamide] showed an inhibition at 10 µM of 21%.

Still in this assay, the particulars now being: dose-response, five doses, side-by-side with AK-1.
Turning to `CC(=O)c1ccc(NC(=O)c2cccc(S(=O)(=O)N(C)c3ccc(C(C)=O)cc3)c2)cc1` [Compound 109, N-(4-Acetylphenyl)-3-(N-(4-acetylphenyl)-N-methylsulfamoyl)benzamide], the “SIRT2 inhibition potency compared with AK-1” value is reported as “equal or just slightly better potency”.

As for `CN(c1ccc(S(C)(=O)=O)cc1)S(=O)(=O)c1cccc(C(=O)Nc2ccc(Cl)cc2)c1` [Compound 117, N-(4-Chlorophenyl)-3-(N-methyl-N-(4-(methylsulfonyl)phenyl)sulfamoyl)benzamide], the “SIRT2 inhibition potency compared with AK-1” value is listed as “equal or just slightly better potency”.

Usually inhibition stands for the percentage by which the read-out fell short of the control. Read a high inhibition as strong suppression.
